What was measured:
Settings in all cases: 72 h
[1] = test system: HepG2; assay: drug sensitivity score (DSS) for viability; higher = more toxic; extreme values may be limits of the assay
[2] = test system: Calu-3; assay: as above
[3] = test system: Vero E6; assay: as above
[4] = test system: Caco-2; assay: as above
[5] = test system: U2OS; assay: as above
[6] = test system: HepG2; assay: cell viability relative to DMSO; higher = less toxic
[7] = test system: Calu-3; assay: as above
[8] = test system: Vero E6; assay: as above
[9] = test system: Caco-2; assay: as above
[10] = test system: U2OS; assay: as above
[11] = test system: HepG2; assay: relative viability EC50 (midpoint between 100% and the lowest measured viability); higher = less toxic
[12] = test system: Calu-3; assay: as above
[13] = test system: Vero E6; assay: as above
[14] = test system: Caco-2; assay: as above
[15] = test system: U2OS; assay: as above

Compound	drug sensitivity score [1]	drug sensitivity score [2]	drug sensitivity score [3]	drug sensitivity score [4]	drug sensitivity score [5]	cell viability ([6]; 1 nM) [%]	cell viability ([6]; 10 nM) [%]	cell viability ([6]; 100 nM) [%]	cell viability ([6]; 1000 nM) [%]	cell viability ([6]; 10000 nM) [%]	cell viability ([7]; 1 nM) [%]	cell viability ([7]; 10 nM) [%]	cell viability ([7]; 100 nM) [%]	cell viability ([7]; 1000 nM) [%]	cell viability ([7]; 10000 nM) [%]	cell viability ([8]; 1 nM) [%]	cell viability ([8]; 10 nM) [%]	cell viability ([8]; 100 nM) [%]	cell viability ([8]; 1000 nM) [%]	cell viability ([8]; 10000 nM) [%]	cell viability ([9]; 1 nM) [%]	cell viability ([9]; 10 nM) [%]	cell viability ([9]; 100 nM) [%]	cell viability ([9]; 1000 nM) [%]	cell viability ([9]; 10000 nM) [%]	cell viability ([10]; 1 nM) [%]	cell viability ([10]; 10 nM) [%]	cell viability ([10]; 100 nM) [%]	cell viability ([10]; 1000 nM) [%]	cell viability ([10]; 10000 nM) [%]	relative viability EC50 [11] [µM]	relative viability EC50 [12] [µM]	relative viability EC50 [13] [µM]	relative viability EC50 [14] [µM]	relative viability EC50 [15] [µM]
O=C(/C=C/c1ccc(CN(CCO)CCc2c[nH]c3ccccc23)cc1)NO [dacinostat]	28.4	21.5	24.4	25.2	22.6	104	82	26.1	-0.4	-0.4	98.7	90.1	56.5	11.3	5.5	108	103	47.8	-0.4	-0.3	96.5	101	38.7	0.3	0.8	98.1	101	66.4	1.3	0.5	0.0395	0.109	0.0966	0.083	0.131
C[C@@H]1C[C@H]2[C@@H]3CCC4=CC(=O)C=C[C@]4(C)[C@@]3(F)[C@@H](O)C[C@]2(C)[C@H]1C(=O)CO [desoximetasone]	0	0	0	0	0	102	95.7	102	91.3	109	86.2	95	101	101	88.8	93	91.3	93.2	88.5	99	94.1	90.1	88	95.2	105	98.3	97.2	91.9	92.9	101	> 10	> 10	> 10	> 10	> 10
CCCCCN(CCCOC)C(=O)[C@@H](CCC(=O)O)NC(=O)c1ccc(Cl)c(Cl)c1 [dexloxiglumide]	0	0	0	0.1	0	94.5	105	89.6	104	108	100	93.3	96.4	95.7	93	89.4	97.8	91.1	96.1	109	92.1	82.1	87.5	86.9	107	92.2	92.1	99.5	91.9	104	> 10	> 10	> 10	> 10	> 10
CN1C(=O)CN=C(c2ccccc2)c2cc(Cl)ccc21 [diazepam]	0	0	0.2	2.2	0	94.8	105	101	100	101	110	92.4	96.6	98	110	97.8	100	101	98.6	86.7	104	101	85.6	87.6	96	107	102	107	99.6	103	> 10	> 10	> 10	> 10	> 10
NS(=O)(=O)c1cc(Cl)c(Cl)c(S(N)(=O)=O)c1 [diclofenamide]	0	0	0	0	0	97.6	103	100	97	101	88.2	81.4	87.1	91	88.9	95.8	102	96	99.1	95.3	102	104	112	104	98.9	102	98	106	98.7	105	> 10	> 10	> 10	> 10	> 10
C/C=C(/C(=C/C)c1ccc(O)cc1)c1ccc(O)cc1 [dienestrol]	0	0	0	0	0	101	100	98.4	110	95.3	98.1	91.4	92.4	84	95.7	101	107	101	104	94.3	112	96.5	105	106	102	106	108	107	99.9	109	> 10	> 10	> 10	> 10	> 10
CC/C=C\C/C=C\C/C=C\C/C=C\C/C=C\C/C=C\CCC(=O)OCC [doconexent-ethyl-ester]	0	0	0	0	0	100	98.9	87.1	107	87.2	99.1	104	104	103	108	99.5	101	98.9	102	102	96.9	108	96.1	96.5	100	93.6	96.9	97.3	103	99.8	> 10	> 10	> 10	> 10	> 10
Cn1cc(C2=C(c3cn(C4CCN(Cc5ccccn5)CC4)c4ccccc34)C(=O)NC2=O)c2ccccc21 [enzastaurin]	0	0	0	0	0	105	113	94	98	106	109	97.3	118	108	109	101	107	103	105	98.9	98.6	104	93.2	98.4	100	102	101	102	97.4	101	> 10	> 10	> 10	> 10	> 10
CC1(C)OC2(C)C(O)CC1CC2O (stereo not given) [epomediol]	0	0	0	0	0	99.9	98.1	96.2	112	101	97.1	82.6	97.5	90.9	105	98.7	97	98	98.7	94	98.7	92.1	98.2	95	101	108	97.3	98.1	97.7	102	> 10	> 10	> 10	> 10	> 10
CC[C@H]1OC(=O)[C@H](C)[C@@H](O[C@H]2C[C@@](C)(OC)[C@@H](O)[C@H](C)O2)[C@H](C)[C@@H](O[C@@H]2O[C@H](C)C[C@H](N(C)C)[C@H]2O)[C@](C)(O)C[C@@H](C)C(=O)[C@H](C)[C@@H](O)[C@]1(C)O [erythromycin]	0	0.5	0	0	0	100	83.5	98.1	91.4	90.4	94.2	102	97.5	90	86.9	101	97.9	101	97.4	99.5	97.9	100	97.2	94.4	96.4	104	102	102	98	101	> 10	> 10	> 10	> 10	> 10
CCOC(=O)[C@@H](N)Cc1ccc(O)c(O)c1 [etilevodopa]	0	0.3	0	2.8	0	86.2	96	88.1	99.1	92.5	103	95.6	92.2	88.8	94	101	89.7	89.7	98.9	111	94	107	84.2	85.8	92.8	92.6	95.7	98.3	96.3	99.3	> 10	> 10	> 10	> 10	> 10
CC1CC(OC(=O)C(O)c2ccccc2)CC(C)(C)N1C (stereo not given) [eucatropine]	0	0	0	0	0	93.5	88.3	95.3	90	93.3	101	100	92.5	95	107	97.8	102	98.2	102	98.8	99.3	103	97	99.2	92.6	104	104	97.8	100	100	> 10	> 10	> 10	> 10	> 10
CC(=O)OCC(CCn1cnc2cnc(N)nc21)COC(C)=O [famciclovir]	0	0	0	1.4	0	103	98.4	103	96.8	100	104	99.4	91.1	106	93.9	99.7	102	98.7	96.9	100	91.3	101	105	87.4	82.8	100	104	95	102	95.5	> 10	> 10	> 10	> 10	> 10
O=c1[nH]c(=O)n([C@H]2C[C@H](O)[C@@H](CO)O2)cc1F [floxuridine]	19	0.5	11.8	24.9	0.3	109	66.2	59.4	50	43.1	101	85.1	93.6	88.9	89	97.2	91.8	74.6	53.6	42.2	88.4	62	42	29.9	44.6	95.3	99.9	101	105	82.6	0.0144	> 10	0.134	0.0088	> 10
N=C(N)NC(=O)Cc1c(Cl)cccc1Cl [guanfacine]	0	0	0	0	0	88.5	95.2	93.3	94	101	92.7	83.6	98.9	91.7	99.1	93.8	105	101	104	89.8	93.9	95.7	110	104	100	102	93.1	104	97.4	100	> 10	> 10	> 10	> 10	> 10
NCCc1c[nH]cn1 [histamine]	0	0	0	0	0	100	102	103	100	97.5	99.4	100	101	95.7	109	99.4	98.2	93.5	97.5	104	90.8	105	101	110	104	94.9	99.7	97.5	103	102	> 10	> 10	> 10	> 10	> 10
C[C@]12CCC(=O)C=C1CC[C@@H]1[C@@H]2[C@@H](O)C[C@@]2(C)[C@H]1CC[C@]2(O)C(=O)COP(=O)(O)O [hydrocortisone-phosphate]	0.1	0	0	0	0	99.2	99.8	105	89.5	94.3	98.3	102	98.5	99.8	93.8	106	100	106	100	104	100	101	103	110	94.1	101	101	97.1	100	95	> 10	> 10	> 10	> 10	> 10
NC(=O)NO [hydroxyurea]	0	0	0	0.1	0	106	81.9	125	115	103	104	89.4	99	103	95.2	95.6	101	101	97.1	112	96.5	87	103	77.9	94.1	97.1	98.2	102	96	99.8	> 10	> 10	> 10	> 10	> 10
CCC(C)n1ncn(-c2ccc(N3CCN(c4ccc(OCC5COC(Cn6cncn6)(c6ccc(Cl)cc6Cl)O5)cc4)CC3)cc2)c1=O (stereo not given) [itraconazole]	0	0	0	0	0	92.7	94.9	101	92.7	97.6	91.1	102	101	104	98.6	92.9	87.4	87.2	87.9	108	103	101	111	99.7	97.2	92.1	99.5	93.9	102	109	> 10	> 10	> 10	> 10	> 10
CC1(C)Oc2ccc(C#N)cc2[C@@H](N2CCCC2=O)[C@@H]1O [levcromakalim]	0	0	0	0	0	109	105	98	101	96.2	85.7	105	91.8	104	102	92.1	96.6	97.1	97.2	93.7	96.5	99.7	99.1	88.5	99.6	103	102	99.4	98	101	> 10	> 10	> 10	> 10	> 10
Clc1cccc(C(c2ccc3[nH]cnc3c2)n2ccnc2)c1 (stereo not given) [liarozole]	0	0	0	0	0	99.6	104	99.3	111	89.3	99	96.1	93.8	103	101	94.2	90.5	94.8	94.8	95	97.2	87.8	98.7	93.9	85.4	97.8	95	95.5	93.9	96.3	> 10	> 10	> 10	> 10	> 10
CC(=O)N(C)c1cc(-c2ccnc3c(C(=O)c4cccs4)cnn23)ccc1F [lorediplon]	1.1	0	0	0.3	0	94	107	95.6	96.1	80	90.8	106	98.6	104	99.6	97.9	98.9	93.9	96.3	91	100	93.9	87.5	95.1	88.1	99.2	97	97	96.7	96.6	> 10	> 10	> 10	> 10	> 10
